Experiments:
[1] = target: Human immunodeficiency virus type 1 protease (Human immunodeficiency virus 1) (UniProt Q72874); experiment: Compound was evaluated for in vitro inhibition of human immunodeficiency virus type 1 (HIV-1) Protease at 1 uM concentration
[2] = Compound was evaluated for in vitro inhibition of human immunodeficiency virus type 1 (HIV-1) Protease
[3] = target: Human immunodeficiency virus type 1 protease (Human immunodeficiency virus 1, UniProt Q72874); experiment: Compound was evaluated for in vitro inhibition of human immunodeficiency virus type 1 (HIV-1) Protease

SMILES | inhibition [1] [%] | IC50 [2] [nM] | Ki [3] [nM]
CCC(C1=C(O)OC(CC)(c2cccc(NS(=O)(=O)c3cccc4cccnc34)c2)CC1=O)c1cccc(NS(=O)(=O)c2cccc3cccnc23)c1 (stereo unspecified) | 35 | – | –
CCC(C1=C(O)OC(CC)(c2cccc(NS(=O)(=O)c3ccc(C#N)cc3)c2)CC1=O)c1cccc(NS(=O)(=O)c2ccc(C#N)cc2)c1 (stereo unspecified) | 19 | – | –
CCCC1(CCc2ccccc2)CC(=O)C(C(CC)c2cccc(NS(=O)(=O)c3cn(C)cn3)c2)=C(O)O1 (stereo unspecified) | – | 500 | 1
CCC(C1=C(O)OC(CC)(c2cccc(NS(=O)(=O)c3ccc(C#N)cn3)c2)CC1=O)c1cccc(NS(=O)(=O)c2ccc(C#N)cn2)c1 (stereo unspecified) | – | – | 0.1
CCC(C1=C(O)OC(CC)(c2cccc(NS(=O)(=O)c3cn(C)cn3)c2)CC1=O)c1cccc(NS(=O)(=O)c2cn(C)cn2)c1 (stereo unspecified) | – | – | 4.7
